Laboratory results published in PubChem BioAssay AID743123 (Broad Institute, 2013).
Where “and” joins values, the source holds several entries; their conditions need not be identical. Equal entries are not always repeated. Inconclusive results are not listed. Calls of active or inactive are those of the source.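 Rule for the calls: active = inhibition with a half-effect concentration no higher than twice the top valid dose tested; inconclusive = flat fit inhibiting 30 to 70%, or a poor fit; inactive = effect in the wrong direction, plus the rest.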

test system: not listed separately; test: antifungal activity under osmotic support – alamar blue, sorbitol added, dry powder, counter-screen for C. neoformans cell wall antifungals, dose response (AID 743123); settings: C. neoformans, alamar blue, sorbitol counter-screen, 24 h; at 35 µM (top of the series)

| Structure (SMILES) | activity change, negative = inhibition |
| --- | --- |
| O=c1[nH]c2ccccc2n1CCOc1ccccc1 | -36.6% (inactive) |
| Cc1ccc(OCCn2c(C)nc3ccccc32)cc1 | -59.3% (inactive) |
| CCOC(=O)c1c(-c2ccc(F)cc2)csc1NC(=O)CN1CCN(C)CC1 | -15.2% (inactive) |
| Cc1cccc(OCCn2c(=S)[nH]c3cc(C(F)(F)F)ccc32)c1 | -32% (inactive) |
| c1ccc(OCCn2cnc3ccccc32)cc1 | -38.4% (inactive) |

test system: C. neoformans, alamar blue, sorbitol counter-screen, 24 h; test: as above; settings: not given

| Structure (SMILES) | AC50 |
| --- | --- |
| Cc1ccc(OCCn2c(=S)[nH]c3ccccc32)cc1 | 10.9 µM |
| CCOC(=O)c1c(NC(=O)CNCCN(C)C)sc(C)c1-c1ccccc1 | 1.09 µM |
| CCOC(=O)c1c(-c2ccc(OC)cc2)csc1NC(=O)CN(C)CC(=O)N(C)C | 13.9 µM |
| Cc1ccc(OCCn2c(=S)[nH]c3ccccc32)c(C(C)C)c1 | 8.54 µM and 9.18 µM |
| Cc1ccccc1OCCn1c(=S)[nH]c2ccccc21 | 9.99 µM |
| Cc1ccc(OCCn2c(SCCO)nc3ccccc32)c(C(C)C)c1 | 7.62 µM |
| Cc1ccc2c(c1)[nH]c(=S)n2CCOc1ccccc1 | 27.1 µM |
| CCOC(=O)c1c(-c2ccc(F)cc2)csc1NC(=O)CN1CCN(CC)CC1 | 36.1 µM |
| CCOC(=O)c1c(-c2ccc(C(C)(C)C)cc2)csc1NC(=O)CN1CCN(C)CC1 | 13.7 µM |
| CCOc1ccc(OCCn2c(=S)[nH]c3ccccc32)cc1 | 24.1 µM |
| S=c1[nH]c2cccc(Cl)c2n1CCOc1ccccc1 | 11.6 µM |
| COC(=O)C1=C(C)N(Cc2ccc(Br)cc2)C(=S)NC1c1ccc(F)cc1 (stereo not given) | 5.99 µM |
| COC(=O)C1=C(C)N(Cc2ccccc2)C(=S)NC1c1ccc(Br)cc1 (stereo not given) | 9.1 µM |
| CCOC(=O)c1c(NC(=O)CN2CCN(C)CC2)sc(C)c1-c1ccc(C)cc1 | 16.9 µM |
| CCOC(=O)c1c(-c2ccc(-c3ccccc3)cc2)csc1NC(=O)CNCCN(C)C | 19.9 µM |
| S=c1[nH]c2ccccc2n1CCOc1ccc(Cl)cc1 | 14.7 µM |
| COC(=O)C1=C(C)N(Cc2ccc(F)cc2)C(=S)NC1c1cccc(F)c1 (stereo not given) | 24.2 µM |
| COC(=O)C1=C(C)N(Cc2ccc(Cl)cc2)C(=S)NC1c1ccc(Br)cc1 (stereo not given) | 3.11 µM |
| Fc1cccc2c1[nH]c(=S)n2CCOc1ccccc1 | 31.9 µM |
| S=c1[nH]c2ccccc2n1CCOc1ccccc1 | 28.5 µM |
| Cc1ccc(C(C)C)c(OCCn2c(=S)[nH]c3ccccc32)c1 | 10.1 µM |
| COC(=O)C1=C(C)N(Cc2ccc(Br)cc2)C(=S)NC1c1ccc(OC)cc1 (stereo not given) | 23.9 µM |
| CCOC(=O)c1c(-c2ccc(C(C)(C)C)cc2)csc1NC(=O)CN1CCN(CC)CC1 | 14.6 µM |
| Fc1ccccc1OCCn1c(=S)[nH]c2ccccc21 | 36.2 µM |
| Cc1ccc(OCCn2cnc3ccccc32)cc1 | 7.76 µM |
